Key:
[1] = Growth inhibition of MCSF expressing mouse M-NSF60 cells
NSO = assay: Growth inhibition of MCSF-independent mouse NSO cells
[2] = target: Macrophage colony-stimulating factor 1 receptor (Homo sapiens, UniProt P07333)
Rattus norvegicus = assay: Antiinflammatory activity against carrageenan-induced paw edema in rat assessed as paw size at 40 mg/kg, iv relative to control; settings: read-out: Inhibition
[3] = Plasma clearance in rat; type: ADME, organism-based
[4] = Plasma clearance in rat at 3 mg/kg, iv; type: ADME, organism-based; parameters: dose 3 mg/kg, route intravenous

Macrophage colony-stimulating factor 1 receptor, sequence (P07333 whole entry): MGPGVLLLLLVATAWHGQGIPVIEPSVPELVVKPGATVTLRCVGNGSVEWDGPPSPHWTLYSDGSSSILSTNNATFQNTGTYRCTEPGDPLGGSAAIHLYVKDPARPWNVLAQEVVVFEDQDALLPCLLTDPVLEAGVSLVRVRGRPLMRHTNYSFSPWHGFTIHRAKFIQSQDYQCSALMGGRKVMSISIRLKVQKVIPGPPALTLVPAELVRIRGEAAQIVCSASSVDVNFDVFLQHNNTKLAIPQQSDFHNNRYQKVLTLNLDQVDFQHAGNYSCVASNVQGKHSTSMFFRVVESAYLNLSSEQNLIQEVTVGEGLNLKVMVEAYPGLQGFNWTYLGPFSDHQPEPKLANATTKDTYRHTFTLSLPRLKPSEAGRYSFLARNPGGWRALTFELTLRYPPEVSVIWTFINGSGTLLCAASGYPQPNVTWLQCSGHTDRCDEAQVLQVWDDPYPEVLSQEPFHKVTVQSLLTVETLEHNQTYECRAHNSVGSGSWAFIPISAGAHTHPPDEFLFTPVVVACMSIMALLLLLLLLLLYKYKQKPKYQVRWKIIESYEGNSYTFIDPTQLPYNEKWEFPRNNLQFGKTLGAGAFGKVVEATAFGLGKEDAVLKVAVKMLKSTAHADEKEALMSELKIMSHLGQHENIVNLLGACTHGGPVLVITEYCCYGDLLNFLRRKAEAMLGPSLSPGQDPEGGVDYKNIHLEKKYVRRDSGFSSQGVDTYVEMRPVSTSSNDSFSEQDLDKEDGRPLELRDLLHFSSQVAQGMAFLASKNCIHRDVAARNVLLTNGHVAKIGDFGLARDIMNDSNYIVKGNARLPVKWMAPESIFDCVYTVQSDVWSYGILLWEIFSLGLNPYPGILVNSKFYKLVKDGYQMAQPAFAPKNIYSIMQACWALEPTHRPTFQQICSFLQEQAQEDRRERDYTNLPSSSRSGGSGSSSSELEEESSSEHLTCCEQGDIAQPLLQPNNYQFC

Compound | IC50 [1] [nM] | IC50 (NSO) [nM] | IC50 [2] [nM] | inhibition in vivo at 40 mg/kg (Rattus norvegicus) [%] | clearance [3] [mL/min/kg] | clearance [4] [mL/min/kg]
COc1ccc(Nc2c(C(N)=O)cnc3cc(-c4ccncc4)ccc23)cc1F | 320 | 32000 | 40 | – | – | –
Cc1cc(Nc2c(C(N)=O)cnc3cc(-c4ccncc4)ccc23)ccc1Cl | 2000 | 32000 | 160 | – | – | –
CN(C)c1ccc(-c2ccc3c(Nc4ccccc4)c(C(N)=O)cnc3c2)cc1 | 6300 | 32000 | 40 | – | – | –
COc1ccc(Nc2c(C(N)=O)cnc3cc(-c4ccncc4)ccc23)cc1Cl | 200 | > 50000 | 32 | – | – | –
NC(=O)c1cnc2cc(-c3ccc(C(=O)C4CC4)cc3)ccc2c1Nc1ccccc1 | 4000 | 10000 | 100 | – | – | –
NC(=O)c1cnc2cc(-c3ccc(C(=O)C4CCCC4)cc3)ccc2c1Nc1ccccc1 | > 20000 | > 20000 | 32 | – | – | –
CS(=O)(=O)Cc1cccc(-c2ccc3c(Nc4ccccc4)c(C(N)=O)cnc3c2)c1 | 5000 | > 20000 | 25 | – | – | –
N#Cc1ccc(-c2ccc3c(Nc4ccccc4)c(C(N)=O)cnc3c2)cc1 | 4000 | 32000 | 50 | – | – | –
NC(=O)c1cnc2cc(-c3ccncc3)ccc2c1Nc1ccccc1 | 800 | 12000 | – | 95 | 39 | –
COc1ccc(Nc2c(C(N)=O)cnc3cc(-c4ccncc4)ccc23)cc1 | 800 | 16000 | 63 | – | – | –
N#Cc1cccc(-c2ccc3c(Nc4ccccc4)c(C(N)=O)cnc3c2)c1 | 8000 | 10000 | 320 | – | – | –
CSc1ccc(Nc2c(C(N)=O)cnc3cc(-c4ccncc4)ccc23)cc1 | 10000 | > 50000 | 130 | – | – | –
CCOc1ccc(Nc2c(C(N)=O)cnc3cc(-c4ccncc4)ccc23)cc1F | 4000 | > 16000 | – | – | – | –
CC(C)Oc1ccc(Nc2c(C(N)=O)cnc3cc(-c4ccncc4)ccc23)cc1F | 8000 | 13000 | – | – | – | –
CN(C)c1ccc(Nc2c(C(N)=O)cnc3cc(-c4ccncc4)ccc23)cc1 | 6300 | 10000 | 63 | – | – | –
CC(C)Oc1ccc(Nc2c(C(N)=O)cnc3cc(-c4ccncc4)ccc23)cc1 | 40000 | > 50000 | 630 | – | – | –
NC(=O)c1cnc2cc(-c3ccncc3)ccc2c1Nc1cccc2[nH]ncc12 | 1300 | > 32000 | 160 | – | – | –
NC(=O)c1cnc2cc(-c3ccccc3)ccc2c1Nc1ccccc1 | 10000 | 32000 | – | – | – | –
NC(=O)c1cnc2cc(-c3ccncc3)ccc2c1Nc1ccc(F)c(F)c1 | 2500 | > 32000 | 32 | – | – | –
Cc1cc(Nc2c(C(N)=O)cnc3cc(-c4ccncc4)ccc23)ccc1F | 1000 | > 50000 | 50 | – | – | –
CS(=O)(=O)Cc1ccc(-c2ccc3c(Nc4ccccc4)c(C(N)=O)cnc3c2)cc1 | 1600 | 8000 | 50 | – | – | –
CCS(=O)(=O)c1ccc(-c2ccc3c(Nc4ccccc4)c(C(N)=O)cnc3c2)cc1 | 800 | 8000 | 200 | – | – | –
NC(=O)c1cnc2cc(-c3ccc(C(=O)N4CCCCC4)cc3)ccc2c1Nc1ccccc1 | 400 | 8000 | 16 | – | – | –
NC(=O)c1cnc2cc(-c3ccc(C(=O)N4CCOCC4)cc3)ccc2c1Nc1ccccc1 | 200 | 8000 | 80 | – | – | –

Compound | IC50 [1] [nM] | IC50 (NSO) [nM] | IC50 [2] [nM] | inhibition in vivo at 40 mg/kg (Rattus norvegicus) [%] | clearance [3] [mL/min/kg] | clearance [4] [mL/min/kg]
CS(=O)(=O)c1ccc(-c2ccc3c(Nc4ccccc4)c(C(N)=O)cnc3c2)cc1 | 100 | 20000 | 16 | – | – | –
Cc1ccc(Nc2c(C(N)=O)cnc3cc(-c4ccc(S(C)(=O)=O)cc4)ccc23)cc1C | 100 | 10000 | 8 | – | – | 51
Cc1ccc(Nc2c(C(N)=O)cnc3cc(-c4ccc(S(C)(=O)=O)cc4)ccc23)cc1F | 3200 | > 20000 | 63 | – | – | –
CS(=O)(=O)c1ccc(-c2ccc3c(Nc4ccc(F)cc4)c(C(N)=O)cnc3c2)cc1 | 400 | 10000 | 160 | – | – | 4.5
COc1ccc(Nc2c(C(N)=O)cnc3cc(-c4ccc(S(C)(=O)=O)cc4)ccc23)cc1F | 1000 | 20000 | 100 | – | – | –
Cc1ccc(-c2ccc3c(Nc4ccccc4)c(C(N)=O)cnc3c2)cc1 | 32000 | 25000 | – | – | – | –
COc1ccc(-c2ccc3c(Nc4ccccc4)c(C(N)=O)cnc3c2)cc1 | 6300 | 8000 | 25 | – | – | –
NC(=O)c1cnc2cc(-c3ccc(F)cc3)ccc2c1Nc1ccccc1 | 25000 | 25000 | 32 | – | – | –
NC(=O)c1cnc2cc(-c3ccc(S(N)(=O)=O)cc3)ccc2c1Nc1ccccc1 | 3200 | 13000 | 80 | – | – | –
NC(=O)c1cnc2cc(-c3ccncc3)ccc2c1Nc1ccc(F)cc1 | 800 | > 40000 | 100 | – | – | –
Cc1ccc(Nc2c(C(N)=O)cnc3cc(-c4ccncc4)ccc23)cc1C | 100 | > 50000 | 80 | – | – | –
Cc1ccc(Nc2c(C(N)=O)cnc3cc(-c4ccncc4)ccc23)cc1F | 5000 | > 20000 | 80 | – | – | –
NC(=O)c1cnc2cc(-c3ccc(Br)cc3)ccc2c1Nc1ccccc1 | 50000 | 50000 | 16 | – | – | –
NC(=O)c1cnc2cc(-c3ccc(N)cc3)ccc2c1Nc1ccccc1 | 1600 | 10000 | – | – | – | –
CS(=O)(=O)c1ccc(-c2ccc3c(Nc4ccc(F)c(F)c4)c(C(N)=O)cnc3c2)cc1 | 2000 | > 20000 | 200 | – | – | –
COc1ccc(Nc2c(C(N)=O)cnc3cc(-c4ccc(S(C)(=O)=O)cc4)ccc23)cc1Cl | 100 | 13000 | – | – | – | –
Cc1ccc(Nc2c(C(N)=O)cnc3cc(-c4ccncc4)ccc23)cc1Cl | 160 | > 32000 | 40 | – | – | –
NC(=O)c1cnc2cc(-c3ccncc3)ccc2c1Nc1ccc(OC(F)(F)F)c(Cl)c1 | > 20000 | > 32000 | 32 | – | – | –
NC(=O)c1cnc2cc(-c3ccncc3)ccc2c1Nc1ccon1 | > 50000 | 40000 | 3200 | – | – | –
NC(=O)c1cnc2cc(-c3ccncc3)ccc2c1Nc1n[nH]c2ccccc12 | 800 | > 50000 | 320 | – | – | –
NC(=O)c1cnc2cc(-c3ccc(C(F)(F)F)cc3)ccc2c1Nc1ccccc1 | 16000 | 20000 | 130 | – | – | –
CS(=O)(=O)Nc1ccc(-c2ccc3c(Nc4ccccc4)c(C(N)=O)cnc3c2)cc1 | 2000 | 10000 | 63 | – | – | –
CC(=O)Nc1ccc(-c2ccc3c(Nc4ccccc4)c(C(N)=O)cnc3c2)cc1 | 1300 | 4000 | 80 | – | – | –

Reference: ChEMBL document CHEMBL1140498, “Synthesis of novel anilinoquinolines as c-fms inhibitors” (Bioorg Med Chem Lett, 2007)
